Measurements as given in patent US20260077009A1, “COMPOSITIONS AND METHODS FOR TREATING NEUROLOGICAL DISORDERS” (Neurotech International Ltd, priority 2021, published 2026).

Tests used:
[1] = Stability of NTI164 in oil at room temperature (UPLC, weekly assay, CBDA as marker)
IL-12 = test: Multiplex cytokine/chemokine assay, IL-12; format: cell-based, human; conditions: 2 μg/ml; Interleukin and Interferon activation; control 99.91
Description: (§1) Multiplex Cytokine/Chemokine Assay: Microglia media harvested following treatment initiation was centrifuged briefly to remove particulates (300 g for 10 min). Cytokine and chemokine levels in the microglial media were measured using a Bio-Plex 200 with a 96-well magnetic plate assay according to the manufacturer's instructions (Bio-Rad). Cytokines and chemokines measured included IL-1α, IL-1β, IL-2, IL-6, IL-10, IL-12 (p70), IL-13, G-CSF, GM-CSF, IFNγ, TNFα, CXCL1 (KC), CCL2 (MCP-1), and CCL5 (RANTES). All samples were run in duplicate and data were analyzed with the Bio-Plex Manager software.
(§2) The tubes are then placed in a sonication bath for 10 mins at 35-40 C. Upon completion of the sonication samples are then placed in a tray shaker (200 rpm) for 30 minutes at room temperature. Once completed the samples are then centrifuged at 4400 rpm for 5 minutes. The supernatant is collected for testing and development.
(§3) For the CBD sample, a pure standard (in powder form) was used. CBD 98% isolate was purchased as a reference standard from LGC Standards (London UK) (CAS No. 13956-29-1). The CBD standard reference was prepared at concentration of 1 mg/ml (in acetonitrile). CBD dilutions were made in acetonitrile as follows: 2 μg/ml; 6 μg/ml; and 0.1 μg/ml.

TNF-alpha = test: Multiplex cytokine/chemokine assay, TNF-alpha; format: cell-based, human; conditions: 2 μg/ml; Interleukin and Interferon activation
Description: as §1, §2, §3

COX-2 = COX-2 immunohistochemistry (protein level) assay in microglial cells; format: cell-based, human; conditions: 2 μg/ml, N=9
Description: Immunohistochemistry (Protein Level) Assay: Cells were fixed for 10 min with 4% paraformaldehyde (PFA) in PBS. After 3×5 minutes washing with PBS, cells were incubated with primary antibodies (anti-COX2) 1:1000 overnight at 4° C., and after 3×5 minutes washing in PBS, cells were then incubated in appropriate fluorescent secondary antibody 1:250 (Invitrogen) for 2 hours at room temperature. After a final wash, as previous, cells nuclei were sained with DAPI in the mounting media. Photomicrographs were taken of the cells in three fields of view per well from duplicate wells and analysed using Fiji for area coverage of each marker.
as §2, §3

neurons = test: Cell death in an excitotoxic cell injury paradigm; format: cell-based; conditions: excitotoxic cell injury paradigm (glutamate 3 mM); 2 μg/ml
Description: Neuronal viability was quantified using MTT [3-(4,5-dimethylthiazol-2-yl-)-2,5-diphenyl-2H-tetrazolium bromide; Sigma]. […] Cellular excitotoxicity was achieved via glutamate activation (3 mM).

| Structure (SMILES) | Cannabinoid concentration in NTI164 (sample 28206-7) ([1]; Day 0 (13 Jul. 2021)) | Cannabinoid concentration in NTI164 (sample 28206-7) ([1]; Day 2 (15 Jul. 2021)) | Cannabinoid concentration in NTI164 (sample 28206-7) ([1]; Day 7 (20 Jul. 2021)) | Cannabinoid concentration in NTI164 (sample 28206-7) ([1]; Day 14 (29 Jul. 2021)) | Cannabinoid concentration in NTI164 (sample 28206-7) ([1]; Day 28 (12 Aug. 2021)) | Cannabinoid concentration in NTI164 (sample 28206-7) ([1]; Week 5 (19 Aug. 2021)) | Cannabinoid concentration in NTI164 (sample 28206-7) ([1]; Week 6 (27 Aug. 2021)) | Cannabinoid concentration in NTI164 (sample 28206-7) ([1]; Week 32 (12 Sep. 2022)) | IL-12, Average +/- Standard Deviation (SD) (IL-12) | TNF-alpha, Average +/- Standard Deviation (SD) (TNF-alpha) | COX-2 expression, Avg +/- SEM (COX-2; exposure 1 hour after inflammatory insult (Interleukin and Interferon gamma), positive control 104.26) | COX-2 expression, Avg +/- SEM (COX-2; exposure 1 hour prior to inflammatory insult (Interleukin and Interferon gamma), positive control 94.47) | Cell death / toxicity (neurons) |
| --- | --- | --- | --- | --- | --- | --- | --- | --- | --- | --- | --- | --- | --- |
| CCCCCc1cc(O)c2c(c1)OC(C)(CCC=C(C)C)C=C2 (stereo not drawn) [Cannabichrome (CBC), Cannabichrome] | 1.23 mg/mL | 1.19 mg/mL | 1.34 mg/mL | 1.22 mg/mL | 1.27 mg/mL | 1.20 mg/mL | 1.15 mg/mL | 1.22 mg/mL |  |  |  |  |  |
| CCCCCc1cc(O)c(C/C=C(\C)CCC=C(C)C)c(O)c1C(=O)O [Cannabigerol Acid(CBG-A), Cannabigerol Acid] | 1.07 mg/mL | 1.18 mg/mL | 1.20 mg/mL | 1.19 mg/mL | 0.81 mg/mL | 1.08 mg/mL | 1.00 mg/mL | 1.05 mg/mL |  |  |  |  |  |
| CCCCCc1cc(O)c2c(c1)OC(C)(C)c1ccc(C)cc1-2 [Cannabinol (CBN), Cannabinol] | 2.32 mg/mL | 2.54 mg/mL | 2.48 mg/mL | 2.33 mg/mL | 2.56 mg/mL | 2.22 mg/mL | 2.27 mg/mL | 2.21 mg/mL |  |  |  |  |  |
| C=C(C)[C@@H]1CCC(C)=C[C@H]1c1c(O)cc(CCC)cc1O [Cannabidivarin (CBDV), Cannabidivarin] | <0.1 mg/mL | <0.1 mg/mL | <0.1 mg/mL | <0.1 mg/mL | <0.1 mg/mL | 0.10 mg/mL | <0.1 mg/mL | 0.13 mg/mL |  |  |  |  |  |
| CCCCCc1cc2c(c(O)c1C(=O)O)[C@@H]1C=C(C)CC[C@H]1C(C)(C)O2 [(Tetrahydrocannabinolic acid) (D9-THCA), Tetrahydrocannabinolic acid] | 0.66 mg/mL | 0.72 mg/mL | 0.64 mg/mL | 0.69 mg/mL | 0.36 mg/mL | 0.79 mg/mL | 0.73 mg/mL | <0.1 mg/mL |  |  |  |  |  |
| CCCCCc1cc(O)c2c(c1)OC(C)(C)[C@@H]1CC=C(C)C[C@@H]21 [DELTA-8-THC (D8-THC), DELTA-8-THC] | <0.1 mg/mL | <0.1 mg/mL | <0.1 mg/mL | <0.1 mg/mL | <0.1 mg/mL | <0.1 mg/mL | <0.1 mg/mL | <0.1 mg/mL |  |  |  |  |  |
| CCCCCc1cc(O)c(C/C=C(\C)CCC=C(C)C)c(O)c1 [Cannabigerol (CBG), Cannabigerol] | 5.21 mg/mL | 5.23 mg/mL | 5.14 mg/mL | 5.1 mg/mL | 5.1 mg/mL | 5.30 mg/mL | 5.28 mg/mL | 5.12 mg/mL |  |  |  |  |  |
| CCCc1cc(O)c2c(c1)OC(C)(C)[C@@H]1CCC(C)=C[C@@H]21 [Tetrahydrocannabivarin (THCV), Tetrahydrocannabivarin] | <0.1 mg/mL | <0.1 mg/mL | <0.1 mg/mL | <0.1 mg/mL | <0.1 mg/mL | <0.1 mg/mL | <0.1 mg/mL | <0.1 mg/mL |  |  |  |  |  |
| C=C(C)[C@@H]1CCC(C)=C[C@H]1c1c(O)cc(CCCCC)c(C(=O)O)c1O [Cannabidiol acid (CBD-A), Cannabidiol acid] | 48.16 mg/mL | 48.19 mg/mL | 48.62 mg/mL | 48.09 mg/mL | 47.12 mg/mL | 48.35 mg/mL | 47.56 mg/mL | 47.01 mg/mL |  |  |  |  |  |
| C=C(C)[C@@H]1CCC(C)=C[C@H]1c1c(O)cc(CCCCC)cc1O [CBD, Cannabidiol, reference compound] | 0.46 mg/mL | 0.56 mg/mL | 0.53 mg/mL | 0.56 mg/mL | 0.54 mg/mL | 0.60 mg/mL | 0.51 mg/mL | 0.48 mg/mL | 84.40 +/− 6.54 | 71.13 +/− 12.81 | 76.32 +/− 7.95 (SEM) | 84.82 +/− 7.65 (SEM) | toxic |
| CCCCCc1cc(O)c2c(c1)OC(C)(C)[C@@H]1CCC(C)=C[C@@H]21 [Tetrahydrocannabinol (D9-THC), Tetrahydrocannabinol] | <0.1 mg/mL | <0.1 mg/mL | <0.1 mg/mL | <0.1 mg/mL | <0.1 mg/mL | 0.14 mg/mL | <0.1 mg/mL | 0.11 mg/mL |  |  |  |  |  |
